According to BindingDB's records for doi:10.1021/jm9707030 (Boehringer Ingelheim Pharmaceuticals, 1998):

How the values were obtained:
[1] = molecular target: T1, Gag-Pol polyprotein [600-1027,R876K]/[600-1155] (Human immunodeficiency virus 1, UniProt P03366, R876K); experiment: HIV-1 RT Assay
T1 construct: 600-1027; 600-1155

[2] = molecular target: T2, Gag-Pol polyprotein [600-1027,Y780C]/[600-1155,Y780C] (Human immunodeficiency virus 1, UniProt P03366, Y780C); experiment: HIV-1 RT Assay; settings: pH 7.8; 22 °C
T2 construct: 600-1027; 600-1155

| Compound | IC50 [1] | other results |
| --- | --- | --- |
| CCN1c2ncc(COc3cc[n+]([O-])c(C)c3)cc2C(=O)N(C)c2ccc(Cl)nc21 [2-Chloro-5,11-dihydro-11-ethyl-5-methyl-8-((4-(2-methyl-1-oxo-pyridinyl))oxy)methyl-6H-dipyrido[3,2-b:2 ,3-e][1,4]diazepin-6-one] | 100 nM | – |
| CCN1c2ncc(COc3ccccc3O)cc2C(=O)N(C)c2ccc(Cl)nc21 [5-chloro-2-ethyl-13-(2-hydroxyphenoxymethyl)-9-methyl-2,4,9,15-tetraazatricyclo[9.4.0.0^{3,8}]pentadeca-1(11),3,5,7,12,14-hexaen-10-one] | – | IC50 ([1]; pH 7.8, 22 °C): 100 nM |
| CCN1c2ncc(CS(=O)(=O)c3ccccc3)cc2C(=O)N(C)c2ccc(Cl)nc21 [13-[(benzenesulfonyl)methyl]-5-chloro-2-ethyl-9-methyl-2,4,9,15-tetraazatricyclo[9.4.0.0^{3,8}]pentadeca-1(15),3(8),4,6,11,13-hexaen-10-one] | 100 nM | – |
| CCN1c2ncc(CNc3cccc(N)c3)cc2C(=O)N(C)c2ccc(Cl)nc21 [13-{[(3-aminophenyl)amino]methyl}-5-chloro-2-ethyl-9-methyl-2,4,9,15-tetraazatricyclo[9.4.0.0^{3,8}]pentadeca-1(11),3,5,7,12,14-hexaen-10-one] | – | IC50 [2]: 100 nM |
